Assay results taken from US20220233556A1, “COMPOSITIONS AND METHODS FOR TREATING OPHTHALMIC CONDITIONS” (Medicon Pharmaceuticals, Inc., priority 2017, published 2022).

Legend:
[1] = tested on: Con A-induced dry eye; experiment: Con A-induced dry eye disease (DED) in rabbits: TBUT, tear osmolarity, STT, tear lactoferrin; format: in vivo, New Zealand White (NZW) rabbits
Method: Con A was injected under ultrasound guidance into all the lacrimal glands and the success of the injection was verified by a post-injection ultrasound image (see FIG. 1 and FIG. 2). […] This variation explains why the blind injections recommended in the original method are often unsuccessful. This was confirmed by mixing the Con A solution with methylene blue and tracking its course after injection. In about ⅓ of the cases, Con A ended up outside the gland.
Four parameters of efficacy were evaluated instead of the usual one or two. They include (a) the tear break up time (TBUT), determined using 0.2% fluorescein over the eye and recording the time taken to develop black dots, lines or obvious disruption of the fluorescein film; (b) tear osmolarity, measured using TearLab Osmolarity Test and following the manufacturer's instructions (TearLab Corp., San Diego, Calif.); (3) Schirmer tear test (STT), determined using Schirmer strips (EagleVision, Denville, N.J.) inserted between the cornea and the palpebral conjunctiva at the mid-point of the lower lid and measuring the length of moistened strip at 5 min; and (4) tear lactoferrin levels measured by ELISA kit (MyBiosource, San Diego, Calif.) following the instructions of the manufacturer. All four have been used in clinical practice and correlate with the clinical activity of the disease. The STT is the least reliable and, as result, it is clinically used less than half as frequently as TBUT.
The injections of Con A to the lacrimal glands were repeated weekly as needed. When longer than a 1-week periods of study are needed, repeat injections prolong dry eye for at least 3 weeks, making the originally acute model chronic.
PS Suppresses Con A—Induced Dry Eye in Rabbits. The effect of PS on dry eye was determined in New Zealand White (NZW) rabbits, 2-3 kg (Charles River Labs, Waltham, Mass.). These rabbits were housed singly in rooms with strict temperature (70±5° F.) and humidity (45±5%) control and acclimated for at least 2 weeks prior to induction of dry eye by injection of Con A as above. NZW rabbits with Con A-induced dry eye (three sets of injections) were treated with PS formulated as nanoparticles and administered topically as eye drops 3×/day for 21 days, starting on the day of Con A injection. […] Similar results were obtained on days 5 and 14 (data not shown). […]
The efficacy of lower concentrations of PS. The efficacy of lower concentrations of PS, 0.1% and 0.2% in DED, was also evaluated. The same animal model (rabbits with Concanavalin A-induced DED) was used. The same methodology described herein was followed, except that PS was administered as two eye drops per eye (˜25 μL each) four times a day. PS was formulated in: 10% (2-hydroxypropyl)-β-cyclodextrin, 4% Tween 80, 2.5% Vitamin E TPGS, 1.4% polyvinyl alcohol (13,000-26,000 molecular weight), 0.001% polyquad, as described herein. The Table below summarizes the corresponding findings: […]

[2] = tested on: NF-κB; experiment: NF-κB activation in the ILG of rabbits with DED; format: in vivo; conditions: 1 week of treatment, vs vehicle
Method: FIGS. 6A and 6B illustrate that PS suppresses the activation of NF-κB and MAPKs. In FIG. 6A, NF-κB activation was determined by EMSA in cultured human conjunctival cells stimulated with TNFα (top) and in the ILG of rabbits with Con A-induced DED and treated for one week with either vehicle or PS (bottom). In FIG. 6B, immunoblots detecting the activation of MAPKs by phosphorylation in cultured human conjunctival cells treated with PS at the indicated concentrations for 3.5 h. Loading control: β-actin.
Human conjunctival cells were treated with various concentrations of PS. Five hours later, TNF-α was added to the culture medium to a final concentration of 10 ng/ml and the status of NF-κB activation was determined by EMSA 1 h later. […] Similarly, after 1 week of treatment, PS suppressed NF-κB activation in the ILG of rabbits with DED compared to those treated with vehicle.

[3] = tested on: ocular inflammation (cataract surgery plus LPS); experiment: Ocular inflammation after cataract surgery plus LPS in rabbits; format: in vivo, New Zealand white rabbits; conditions: PS 3.5% nanoparticles
Method: The anti-inflammatory effect of PS in New Zealand white rabbits was evaluated following cataract surgery and administration of the proinflammatory bacterial lipopolysaccharide (LPS). Briefly, the lens was removed by phacoemulsification and aspiration and replaced with the hydrophobic acrylic intraocular lens (AR40e, AMO). Upon completion of the operation, 1 μg of LPS dissolved in 10 μl PBS was injected into the vitreous to induce uveitis.
Rabbits were treated with PS 3.5% formulated in nanoparticles or vehicle (nanoparticles without PS) applied topically as eye drops three times per day. The first application was made within 1 h after completion of surgery. The rabbits were examined daily and the aqueous humor (AH) was sampled by needle aspiration on days 1, 3, and 5 following the injection of LPS. The number of infiltrating cells in the AH was determined following standard methods. On day 5, the rabbits were euthanized and the implanted lens was removed and fixed in 2.5% glutaraldehyde and the number of inflammatory cells attached to the lens was examined under a dissecting microscope.

[4] = Corneal levels of a PS 0.2% solution formulation after single topical application; format: in vivo; conditions: cornea, topical or ocular, 0.2 % PS solution (single application, volume not stated), mean ± SEM
Method: Another embodiment of this type of formulation is: 0.1% PS, 10% HP-β-CD, 4% Tween 80, 2.5% Vitamin E TPGS, 1.4% polyvinyl alcohol (PVA) (13,000-26,000 molecular weight), 0.001% polyquad. Another embodiment of this type of formulation is: 0.2% PS; 10% HP-β-CD; 4% Tween 80; 2.5% Vitamin E TPGS; 1.4% polyvinyl alcohol (PVA) (13,000-26,000 molecular weight); and 0.001% polyquad. Preparation method: PVA was dissolved into water by stirring at 95° C. for 6 h. All ingredients including the PVA solution and PS were added into a glass vial, stirred at 50° C. (in a water bath) for 4 h, and then stirred at RT overnight. The pH was adjusted to 7.4±0.2 with NaOH and the osmolarity to 280-320 mOsm with NaCl 18%. For a sterile final product, this solution was filtered through a […] film.
The corneal levels of a PS 0.2% formulation were determined after its single topical application to the surface of the eye.

[5] = 1 week of treatment, comparison with ophthalmic NSAIDs (FIG. 5)
[6] = PS 0.1%, two eye drops four times a day, Baseline, mean ± SEM (n = 12)
[7] = PS 0.1%, two eye drops four times a day, Day 5, mean ± SEM (n = 12)
[8] = PS 0.2%, two eye drops four times a day, Baseline, mean ± SEM (n = 12)
[9] = PS 0.2%, two eye drops four times a day, Day 5, mean ± SEM (n = 12)
[10] = PS nanoparticles, eye drops 3x/day for 21 days

SMILES: CCOP(=O)(OCC)OCCCCOC(=O)CC1=C(C)/C(=C/c2ccc([S+](C)[O-])cc2)c2ccc(F)cc21 (centres unmarked) [PS, phosphosulindac]
- STT [1, 5]: no significant effect
- TBUT [1, 5]: normalized
- osmolarity [1, 5]: normalized
- STT [1, 6]: 16.4 ± 1.5 mm
- TBUT [1, 6]: 57.9 ± 1.5 s
- STT [1, 7]: 12.0 ± 0.8 mm
- TBUT [1, 7]: 45.4 ± 5.2 s
- STT [1, 8]: 15.9 ± 1.0 mm
- TBUT [1, 8]: 57.9 ± 2.1 s
- STT [1, 9]: 11.8 ± 0.9 mm
- TBUT [1, 9]: 45.7 ± 4.5 s
- TBUT [1, 10]: restored to normal
- tear lactoferrin levels [1, 10]: restored to normal
- tear osmolarity [1, 10]: restored to normal
- STT value ([1]; PS nanoparticles, eye drops 3x/day for 21 days, difference from vehicle significant only for trend): improved
- NF-κB activation in the ILG [2]: suppressed
- number of inflammatory cells in AH ([3]; day 3, vehicle 24−35×10^4/ml): < 70000 mL⁻¹
- inflammatory cells attached to implanted lens ([3]; day 5): very few or no cells
- ocular inflammation (clinical appearance) ([3]; eye drops three times per day, first 24 h): essentially eliminated
- Cmax [4]: 63.4 ± 10 µM
- AUC(0-t) ([4]; read-out: AUC0-t, Cornea): 62.6 ± 10.2 µM·h
- MRT inf ([4]; read-out: MRT0-inf—obs, Cornea): 60 ± 6 min
- half-life ([4]; read-out: t1/2, Cornea (converted)): 42 ± 12 min
